In patent US6627604B2, “Memno peptides, process for their preparation and use thereof” (priority 2000, dated 2003):
Values after ≈ are worked out from the molar mass of the structure shown. Residues, ends and D or L forms follow the SMILES beside them. *: point of attachment. X1 = CC1CCC2C(C)(C)C(O)CCC2(C)C12Cc1c(O)cc3c(c1O2)CN(C(CC[S+](C)[O-])C(=O)*)C3=O

Legend:
[1] = system: Staphylococcus aureus 503
[2] = system: Streptococcus pyogenes 77A
[3] = system: Staphylococcus aureus 285
[4] = system: Enterococcus faecium Md8B
G-6-P phosphatase = G-6-P phosphatase (Homo sapiens, UniProt P35575); test: Inhibition of G-6-P phosphatase; type: biochemical
G-6-P phosphatase, sequence (P35575 whole entry): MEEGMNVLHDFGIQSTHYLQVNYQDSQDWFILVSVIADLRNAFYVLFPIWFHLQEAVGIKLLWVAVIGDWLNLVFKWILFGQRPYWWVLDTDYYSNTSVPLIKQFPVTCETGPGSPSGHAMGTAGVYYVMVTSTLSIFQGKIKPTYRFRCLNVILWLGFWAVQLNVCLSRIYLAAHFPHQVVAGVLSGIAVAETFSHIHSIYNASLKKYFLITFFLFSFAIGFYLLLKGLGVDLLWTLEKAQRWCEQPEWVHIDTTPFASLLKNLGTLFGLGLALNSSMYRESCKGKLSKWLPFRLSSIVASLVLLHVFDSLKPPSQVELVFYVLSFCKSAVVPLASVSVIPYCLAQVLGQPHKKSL

[5] = system: Streptococcus pyogenes VR3; test: Minimum inhibitory concentration; type: cell-based; details: resistance against: Vancomycin
[6] = system: Staphylococcus aureus 9 Tüb
[7] = system: Staphylococcus aureus 707E
[8] = system: Staph. epidermidis 5747IIW
[9] = system: Streptococcus pyogenes 308A
SERCA2 = molecular target: T1, SERCA2 (Canis lupus familiaris, UniProt O46674); test: Colorimetric Ca2+ ATPase (SERCA2) activation test in dog heart microsomes; type: biochemical; details: Ca2+ ATPase activity in dog heart microsomes, phosphate release at 620 nm
T1 construct: activity of the Ca^2+ ATPase in dog heart microsomes; from tissue; host or cells: dog heart microsomes
T1 sequence (O46674 whole entry): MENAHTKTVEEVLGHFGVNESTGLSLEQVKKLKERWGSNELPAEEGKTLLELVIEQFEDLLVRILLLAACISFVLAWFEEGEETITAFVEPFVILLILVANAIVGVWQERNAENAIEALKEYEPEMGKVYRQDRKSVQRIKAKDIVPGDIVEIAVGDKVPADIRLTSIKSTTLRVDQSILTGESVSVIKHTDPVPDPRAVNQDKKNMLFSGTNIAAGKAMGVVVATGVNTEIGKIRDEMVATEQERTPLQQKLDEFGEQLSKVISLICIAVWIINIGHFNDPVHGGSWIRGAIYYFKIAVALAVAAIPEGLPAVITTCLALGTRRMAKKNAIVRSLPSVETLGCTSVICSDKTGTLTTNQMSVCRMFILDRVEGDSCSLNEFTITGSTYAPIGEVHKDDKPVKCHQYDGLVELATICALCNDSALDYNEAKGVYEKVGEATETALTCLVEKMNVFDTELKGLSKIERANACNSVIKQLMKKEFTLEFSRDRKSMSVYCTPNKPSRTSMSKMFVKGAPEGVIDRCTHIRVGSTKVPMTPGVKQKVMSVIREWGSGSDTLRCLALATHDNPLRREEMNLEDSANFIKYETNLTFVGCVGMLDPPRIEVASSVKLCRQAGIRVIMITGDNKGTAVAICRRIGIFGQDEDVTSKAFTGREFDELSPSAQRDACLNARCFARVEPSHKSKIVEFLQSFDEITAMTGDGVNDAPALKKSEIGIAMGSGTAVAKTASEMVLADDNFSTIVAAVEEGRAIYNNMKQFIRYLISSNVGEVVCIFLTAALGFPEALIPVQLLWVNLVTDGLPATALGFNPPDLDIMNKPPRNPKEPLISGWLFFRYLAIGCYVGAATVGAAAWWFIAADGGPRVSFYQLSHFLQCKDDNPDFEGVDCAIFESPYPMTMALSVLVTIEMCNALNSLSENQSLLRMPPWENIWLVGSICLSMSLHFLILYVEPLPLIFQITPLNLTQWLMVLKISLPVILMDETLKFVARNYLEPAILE
From the text: For the detection of the activators of SERCA2 which imitate the phosphorylation effect of PLB, a […] test may be run which determines the activity of the Ca^2+ ATPase in dog heart microsomes in the presence of test substances. The test may be carried out in 96-well microtiter plates. The enzymatic release of inorganic phosphate from ATP, which forms a blue colored complex with ammonium molybdate which can be measured at 620 nm in a spectrophotometer, may be measured.

[10] = system: Staphylococcus aureus SG 511
[11] = molecular target: glucose-6-phosphate translocase (G-6-P—TL) (Homo sapiens, UniProt O43826); test: Inhibition of glucose-6-phosphate translocase; type: biochemical
glucose-6-phosphate translocase (G-6-P—TL), sequence (O43826 whole entry, species assumed): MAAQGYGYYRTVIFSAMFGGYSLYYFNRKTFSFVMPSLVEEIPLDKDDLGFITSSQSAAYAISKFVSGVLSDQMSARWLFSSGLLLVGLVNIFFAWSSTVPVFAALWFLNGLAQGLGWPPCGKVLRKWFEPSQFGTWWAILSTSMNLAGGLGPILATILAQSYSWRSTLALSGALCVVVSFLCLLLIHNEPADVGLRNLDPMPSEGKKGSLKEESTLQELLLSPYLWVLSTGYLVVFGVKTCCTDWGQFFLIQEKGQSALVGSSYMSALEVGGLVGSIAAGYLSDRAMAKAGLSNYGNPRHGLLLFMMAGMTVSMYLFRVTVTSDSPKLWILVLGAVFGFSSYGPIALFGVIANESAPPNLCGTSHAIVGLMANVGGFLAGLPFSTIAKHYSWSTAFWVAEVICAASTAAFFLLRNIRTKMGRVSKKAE

[12] = system: Staphylococcus aureus FH 1982
[13] = system: Staphylococcus aureus 701E

With CC(C)CC(NC(=O)C1CCCN1C(=O)C(CCC(N)=O)NC(=O)C(Cc1c[nH]cn1)NC(=O)C1CCCN1C(=O)C(CCC(N)=O)NC(=O)C(Cc1cnc[nH]1)NC(=O)C(CC[S+](C)[O-])N1Cc2c(cc(O)c3c2OC2(C3)C(C)CCC3C(C)(C)C(O)CCC32C)C1=O)C(=O)N1CCCC1C(=O)N1CCCC1C(=O)O (stereo not drawn) [memno peptide A] (X1-HQPHQPLPP-OH; configuration not given here) the MIC [1] was 16 µg/mL (≈ 10.2 µM), the MIC [2] was 4 µg/mL (≈ 2.55 µM) and the MIC [3] was 16 µg/mL (≈ 10.2 µM). The MIC [4] was 8 µg/mL (≈ 5.11 µM), the “inhibition of the coenzyme G-6-P phosphatase” value (G-6-P phosphatase) was “does not inhibit” and the MIC (Staph. epidermidis 763) was >16 µg/mL. The MIC [5] was >64 µg/mL, the MIC [6] was 16 µg/mL (≈ 10.2 µM) and the MIC (Staph. epidermidis ZH 2c) was 16 µg/mL (≈ 10.2 µM). It also gave an MIC [7] of 16 µg/mL (≈ 10.2 µM), an MIC (Staph. epidermidis 799) of 8 µg/mL (≈ 5.11 µM) and an MIC [8] of 32 µg/mL (≈ 20.4 µM). For the same compound, the MIC [9] was 8 µg/mL (≈ 5.11 µM), the MIC (Enterococcus faecium VR2) was >64 µg/mL and the “activates SERCA2 in concentrations from” value (SERCA2) was ≥ 12.5 µM. The MIC [10] was 16 µg/mL (≈ 10.2 µM), the “inhibitory action on glucose-6-phosphate translocase (G-6-P—TL)” value [11] was “exhibits selective activities against G-6-P—TL” and the MIC (Staph. epidermidis 291) was 8 µg/mL (≈ 5.11 µM). The MIC [12] was 16 µg/mL (≈ 10.2 µM), the MIC (Enterococcus faecium VR1) was >64 µg/mL and the MIC [13] was 16 µg/mL (≈ 10.2 µM).
